# Experimental data: patent publication US8993626B2, “Methods of treatment using sterculic acid” (The United States of America, as represented by the …, priority 2010, dated 2015)
# Tests used:
# [1] = tested on: stearoyl-CoA desaturase (SCD); experiment: SCD mRNA expression (qRT-PCR); format: cell-based; conditions: 4 μM 7KCh, 24 hr
# Experimental: FIGS. 18A and 18B depict (A) Dose response of SCD mRNA inductions by 0-12 μM 7KCh after 24 hr treatments. (B) The mRNA expressions of SCD in response to 8 μM 7KCh, 1 μM sterculic acid, 1 μM stearic acid, or the combinations of 7KCh with either sterculic acid or stearic acid. Error bars indicate the standard deviations. n=4.
# (§1) The RNA was extracted using RNeasy Mini Kit (Qiagen, Valencia, Calif.). The reverse transcription was performed with reagents and kits from Invitrogen. Quantification of mRNA expression was performed using the Taqman gene expression assays and the following primers (VEGFa, Hs00173626_m1; IL-1β, Hs01555413_m1; IL-6, Hs00174131_m1; IL-8, Hs00174103_m1; IκBα, Hs00153283_m1; GRP78, Hs99999174_m1; CHOP, Hs01090850_m1; NOX2, Hs00166163_m1; NOX4, Hs01558199_m1; SCD, Hs00748952 s1; TNF-α, Hs00174128_m1; TGF-β1, Hs00998133_m1; GAPD, 4352934e). GAPD expression was used as an endogenous standard. All qRT-PCR experiments were measured in triplicates in an ABI 7500 Real-Time PCR Instrument (Applied Biosystems, Foster City, Calif.). The results of each treatment were normalized and presented in percentage relative to the vehicle-only control.
# To determine the effect of 7KCh on SCD expression ARPE-19 cells were incubated with 4 μM 7KCh for 24 hr. 7KCh suppressed SCD mRNA expression by approximately 60-70% (FIG. 18A). […] Treatment of the cells with 8 μM 7KCh and 1 μM sterculic acid further suppress SCD expression to 86% (FIG. 18B). […] This is the only instance where 7KCh and sterculic acid worked synergistically rather than antagonistically.
# ARPE-19 cells [2] = experiment: ELISA of secreted VEGF, IL-6, IL-8 in conditioned medium; format: cell-based; conditions: 6 μM 7KCh alone or with 1 μM fatty acid, 48 hr
# Experimental: FIGS. 16A-16E depict the secreted protein levels of (A) VEGF, (B) IL-6, and (C) IL-8 were measure by ELISA 48 hr after treatment with 6 μM 7KCh, 1 μM sterculic acid, 1 μM stearic acid, or the combinations of 7KCh with either sterculic acid or stearic acid. Error bars indicate the standard deviations. *p<0.05 comparing to 7KCh, n=3. Two-tailed Student's t-test. The expressions of GRP78 and CHOP were shown by immunoblots (D) 24 hr or (E) 48 hr after treatment with 8 μM 7KCh, 1 μM sterculic acid, 1 μM stearic acid, or the combinations of 7KCh with either sterculic acid or stearic acid.
# (§2) ARPE-19 cells were seeded in 24-well plates with 1×10^5 cells per well and allowed to recover for 16-24 hr. Once confluency reached approximately 90%, the effect of the fatty acids against 7KCh-mediated cell death was examined 24 hr after incubation in serum-free medium with 12 μM 7KCh. Fatty acids were tested at 0.1, 0.5, 1, 5 and 10 μM concentrations. The effects of the fatty acids against 7KCh-mediated inflammation and ER stress were examined by incubating cells in 1 μM fatty acids with either 8 μM 7KCh (24 hr for quantitative real-time PCR (qRT-PCR), 24 and 48 hr for immunoblot), or 6 μM 7KCh for 48 hr (for ELISA). Three individual experiments were performed for each treatment with quadruplicate measurements performed for each experiment in 24-well plates.
# The levels of secreted VEGF, IL-6, IL-8, and TNF-α in conditioned medium of ARPE-19 cell cultures were measured 48 hr after treatments of 6 μM 7KCh and 1 μM fatty acids using the Quantkine ELISA kits from R&D systems (Minneapolis, Minn.). The protein levels were measured in triplicates. The ELISA results were quantified using an Envision multilable plate reader (PerkinElmer, Covina, Calif.) and presented in percentage relative to the vehicle-only control.
# ARPE19 cells [3] = experiment: Cell Counting Kit-8 viability assay, 15 μM 7KCh-induced cytotoxicity; conditions: 15 μM 7KCh, 24 hr, CCK-8
# Experimental: 4×10^4 cells were seeded onto wells of a 96 well plate. […] Cell viability was determined as celluar dehydrogenase activity and expressed as the percentage of compound treated cells relative to that of untreated controls. error bar: standard deviation, n=4.
# The kit allows sensitive colorimetric assays for the determination of the number of viable cells in cell proliferation and cytotoxicity assays. The amount of the formazan dye generated by the activity of dehydrogenases in cells is directly proportional to the number of living cells.
# 1) Cells were cultivated in a 96 well cell plate (Costar#3599, Corning Incorp, Corning, N.Y.).
# 2) The cell suspension (40,000 cells/100 μL) were added to 100 μL culture media per well and stood for 15 min at room temperature and cultured at 37° C. in a humidified 5% CO2 atmosphere.
# 3) Approximately 19 hr after seeding, when the cells were fully confluent, the cells were treated with either DMSO or 1 μM fatty acid in 200 μL of serum free media and subsequently added with 15 μM 7KCh in HPBCD. Then, the plate was swirled for mixing. The cells were also treated with DMSO and HPBCD, which served as vehicle control. The final DMSO and HPBCD concentrations in the media were in the range of 0.1% and 0.0675%, respectively.
# Cell viability was expressed as the percentage of compound treated cells relative to that of untreated controls. Prior to measure cell viability, the cells were imaged live by Nikon TE 2000-U inverted fluorescent microscope.
# ARPE19 cells [4] = experiment: CellTiter-Glo luminescent cell viability assay, 15 μM 7KCh-induced cytotoxicity; format: cell-based, human; conditions: 15 μM 7KCh, 24 hr, CellTiter-Glo
# Experimental: Error bar: standard deviation, n=4.
# CellTiter-Glo® Luminescent Cell Viability Assay is a homogeneous method of determining the number of viable cells in culture based on quantitation of the ATP (luminescent signal) present, an indicator of metabolically active cells.
# The contents in a plate were mixed for 2 min on an orbital shaker to induce cell lysis.
# 5) The plate was allowed to incubate at room temperature for 10 min to stabilize luminescent signal.
# [5] = 7-ketocholesterol-mediated cytotoxicity, 24-well CCK-8 viability; conditions: human
# ARPE-19 cells [6] = experiment: qRT-PCR of inflammatory cytokines and ER stress markers, 7KCh-mediated inflammation; format: cell-based; conditions: 8 μM 7KCh alone or with 1 μM fatty acid
# Experimental: FIGS. 13A-13D depict mRNA expressions of (A) VEGF, (B) IL-6, (C) GRP78, and (D) CHOP in response to 8 μM 7KCh with or without 1 μM long-chain fatty acids. Error bars indicate the standard deviations. *p<0.05 comparing to 7KCh, n=3. Two-tailed Student's t-test.
# FIGS. 14A-14D depict mRNA expressions of (A) VEGF, (B) IL-1b, (C) IL-6, and (D) IL-8 in response to 8 μM 7KCh, 1 μM sterculic acid, 1 μM stearic acid, or the combinations of 7KCh with either sterculic acid or stearic acid. Error bars indicate the standard deviations. *p<0.05 comparing to 7KCh, n=4. Two-tailed Student's t-test.
# FIGS. 15A-15D depict mRNA expressions of (A) TNF-α, (B) TGF-β1, (C) GRP78, and (D) CHOP in response to 8 μM 7KCh, 1 μM sterculic acid, 1 μM stearic acid, or the combinations of 7KCh with either sterculic acid or stearic acid. Error bars indicate the standard deviations. *p<0.05 comparing to 7KCh, n=3-4. Two-tailed Student's t-test.
# as §2, §1
smiles,measurement,setting,value
"CC(C)CCC[C@@H](C)[C@H]1CC[C@H]2[C@@H]3C(=O)C=C4C[C@@H](O)CC[C@]4(C)[C@H]3CC[C@]12C [7KCh, 7-Ketocholesterol]",suppression of SCD mRNA expression,[1],60-70%
same,secreted IL-6 protein expression,ARPE-19 cells [2],1.8 fold
same,secreted IL-8 protein expression,ARPE-19 cells [2],1.7 fold
same,secreted VEGF protein expression,ARPE-19 cells [2],1.6 fold
same,loss in cell viability,ARPE19 cells [3],50-60%
same,loss in cell viability,ARPE19 cells [4],40-50%
same,CC50 at 24 h,[5],11 µM
same,VEGF mRNA expression,"ARPE-19 cells [6]; 24 hr, FIG. 13A",4 fold
same,IL-6 mRNA expression,"ARPE-19 cells [6]; 24 hr, FIG. 13B",22 fold
same,GRP78 mRNA expression,"ARPE-19 cells [6]; 24 hr, FIG. 13C",4 fold
same,CHOP mRNA expression,"ARPE-19 cells [6]; 24 hr, FIG. 13D",15 fold
same,induction of VEGF mRNA,ARPE-19 cells [6]; FIG. 14A,5.5 fold
same,induction of IL-1β mRNA,ARPE-19 cells [6]; FIG. 14B,6.7 fold
same,induction of IL-6 mRNA,ARPE-19 cells [6]; FIG. 14C,21 fold
same,induction of IL-8 mRNA,ARPE-19 cells [6]; FIG. 14D,4.7 fold
same,induction of TNF-α mRNA,ARPE-19 cells [6]; FIG. 15A,2.7 fold
same,induction of TGF-β1 mRNA,ARPE-19 cells [6]; FIG. 15B,1.3 fold
same,induction of GRP78 mRNA,ARPE-19 cells [6]; FIG. 15C,5.4 fold
same,induction of CHOP mRNA,ARPE-19 cells [6]; FIG. 15D,12 fold
